{"source": "PubChem BioAssay (NCI)", "assay_in_all_cases": "growth of human tumour cells (NCI), 48 h", "key": {"NCI-H23 lung": {"test_system": "NCI-H23 lung"}, "NCI-H460 lung": {"test_system": "NCI-H460 lung"}, "NCI-H522 lung": {"test_system": "NCI-H522 lung"}, "NCI/ADR-RES ovarian": {"test_system": "NCI/ADR-RES ovarian"}, "OVCAR-3 ovarian": {"test_system": "OVCAR-3 ovarian"}, "OVCAR-4 ovarian": {"test_system": "OVCAR-4 ovarian"}, "OVCAR-5 ovarian": {"test_system": "OVCAR-5 ovarian"}, "OVCAR-8 ovarian": {"test_system": "OVCAR-8 ovarian"}, "PC-3 prostate": {"test_system": "PC-3 prostate"}, "RPMI-8226 leukemia": {"test_system": "RPMI-8226 leukemia"}, "RXF 393 renal": {"test_system": "RXF 393 renal"}, "SF-268 CNS": {"test_system": "SF-268 CNS"}, "SF-295 CNS": {"test_system": "SF-295 CNS"}, "SF-539 CNS": {"test_system": "SF-539 CNS"}, "SK-MEL-28 melanoma": {"test_system": "SK-MEL-28 melanoma"}, "SK-MEL-5 melanoma": {"test_system": "SK-MEL-5 melanoma"}, "SK-OV-3 ovarian": {"test_system": "SK-OV-3 ovarian"}, "SN12C renal": {"test_system": "SN12C renal"}, "SNB-19 CNS": {"test_system": "SNB-19 CNS"}, "SNB-75 CNS": {"test_system": "SNB-75 CNS"}, "SR leukemia": {"test_system": "SR leukemia"}, "SW-620 colon": {"test_system": "SW-620 colon"}, "T-47D breast": {"test_system": "T-47D breast"}, "TK-10 renal": {"test_system": "TK-10 renal"}, "U251 CNS": {"test_system": "U251 CNS"}, "UACC-257 melanoma": {"test_system": "UACC-257 melanoma"}, "UACC-62 melanoma": {"test_system": "UACC-62 melanoma"}, "UO-31 renal": {"test_system": "UO-31 renal"}}, "note": "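Cultured in 96-well plates, cells were exposed to test compound for 48 hours across five concentrations. Here, GI50 denotes the concentration required for 50% inhibition of growth. Definition used: TGI = concentration required for complete inhibition of growth.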"}
{"compound": "O=C(N/N=C/c1ccc([N+](=O)[O-])cc1)c1ccccc1Nc1ccnc(C(F)(F)F)c1", "values": [{"measurement": "TGI", "setting": "NCI-H23 lung", "value": "> 100", "unit": "µM"}, {"measurement": "GI50", "setting": "NCI-H460 lung", "value": 21.3, "unit": "µM"}, {"measurement": "TGI", "setting": "NCI-H460 lung", "value": 52.9, "unit": "µM"}, {"measurement": "GI50", "setting": "NCI-H522 lung", "value": 12.5, "unit": "µM"}, {"measurement": "TGI", "setting": "NCI-H522 lung", "value": 38.3, "unit": "µM"}, {"measurement": "GI50", "setting": "NCI/ADR-RES ovarian", "value": 16.8, "unit": "µM"}, {"measurement": "TGI", "setting": "NCI/ADR-RES ovarian", "value": 58.7, "unit": "µM"}, {"measurement": "GI50", "setting": "OVCAR-3 ovarian", "value": 4.54, "unit": "µM"}, {"measurement": "TGI", "setting": "OVCAR-3 ovarian", "value": "> 100", "unit": "µM"}, {"measurement": "GI50", "setting": "OVCAR-4 ovarian", "value": 14.2, "unit": "µM"}, {"measurement": "TGI", "setting": "OVCAR-4 ovarian", "value": 56.3, "unit": "µM"}, {"measurement": "GI50", "setting": "OVCAR-5 ovarian", "value": 24.6, "unit": "µM"}, {"measurement": "TGI", "setting": "OVCAR-5 ovarian", "value": "> 100", "unit": "µM"}, {"measurement": "GI50", "setting": "OVCAR-8 ovarian", "value": 11.6, "unit": "µM"}, {"measurement": "TGI", "setting": "OVCAR-8 ovarian", "value": 49.8, "unit": "µM"}, {"measurement": "GI50", "setting": "PC-3 prostate", "value": 12.9, "unit": "µM"}, {"measurement": "TGI", "setting": "PC-3 prostate", "value": 29.7, "unit": "µM"}, {"measurement": "GI50", "setting": "RPMI-8226 leukemia", "value": 1.61, "unit": "µM"}, {"measurement": "TGI", "setting": "RPMI-8226 leukemia", "value": 14.5, "unit": "µM"}, {"measurement": "GI50", "setting": "RXF 393 renal", "value": 15.4, "unit": "µM"}, {"measurement": "TGI", "setting": "RXF 393 renal", "value": 42.8, "unit": "µM"}, {"measurement": "GI50", "setting": "SF-268 CNS", "value": 10.5, "unit": "µM"}, {"measurement": "TGI", "setting": "SF-268 CNS", "value": 82.8, "unit": "µM"}, {"measurement": "GI50", "setting": "SF-295 CNS", "value": 11.2, "unit": "µM"}, {"measurement": "TGI", "setting": "SF-295 CNS", "value": 32.4, "unit": "µM"}, {"measurement": "GI50", "setting": "SF-539 CNS", "value": 30.3, "unit": "µM"}, {"measurement": "TGI", "setting": "SF-539 CNS", "value": "> 100", "unit": "µM"}, {"measurement": "GI50", "setting": "SK-MEL-28 melanoma", "value": 14.8, "unit": "µM"}, {"measurement": "TGI", "setting": "SK-MEL-28 melanoma", "value": 64.2, "unit": "µM"}, {"measurement": "GI50", "setting": "SK-MEL-5 melanoma", "value": 19.1, "unit": "µM"}, {"measurement": "TGI", "setting": "SK-MEL-5 melanoma", "value": 42.3, "unit": "µM"}, {"measurement": "GI50", "setting": "SK-OV-3 ovarian", "value": 28, "unit": "µM"}, {"measurement": "TGI", "setting": "SK-OV-3 ovarian", "value": 81.4, "unit": "µM"}, {"measurement": "GI50", "setting": "SN12C renal", "value": 26.3, "unit": "µM"}, {"measurement": "TGI", "setting": "SN12C renal", "value": "> 100", "unit": "µM"}, {"measurement": "GI50", "setting": "SNB-19 CNS", "value": 23.9, "unit": "µM"}, {"measurement": "TGI", "setting": "SNB-19 CNS", "value": "> 100", "unit": "µM"}, {"measurement": "GI50", "setting": "SNB-75 CNS", "value": 18.2, "unit": "µM"}, {"measurement": "TGI", "setting": "SNB-75 CNS", "value": 70.3, "unit": "µM"}, {"measurement": "GI50", "setting": "SR leukemia", "value": 1.5, "unit": "µM"}, {"measurement": "TGI", "setting": "SR leukemia", "value": 20.2, "unit": "µM"}, {"measurement": "GI50", "setting": "SW-620 colon", "value": 13.3, "unit": "µM"}, {"measurement": "TGI", "setting": "SW-620 colon", "value": 88.1, "unit": "µM"}, {"measurement": "GI50", "setting": "T-47D breast", "value": 21.6, "unit": "µM"}, {"measurement": "TGI", "setting": "T-47D breast", "value": 82.4, "unit": "µM"}, {"measurement": "GI50", "setting": "TK-10 renal", "value": 0.0799, "unit": "µM"}, {"measurement": "TGI", "setting": "TK-10 renal", "value": 20.2, "unit": "µM"}, {"measurement": "GI50", "setting": "U251 CNS", "value": 16.6, "unit": "µM"}, {"measurement": "TGI", "setting": "U251 CNS", "value": "> 100", "unit": "µM"}, {"measurement": "GI50", "setting": "UACC-257 melanoma", "value": 11.6, "unit": "µM"}, {"measurement": "TGI", "setting": "UACC-257 melanoma", "value": 37.9, "unit": "µM"}, {"measurement": "GI50", "setting": "UACC-62 melanoma", "value": 13.3, "unit": "µM"}, {"measurement": "TGI", "setting": "UACC-62 melanoma", "value": 38.3, "unit": "µM"}, {"measurement": "GI50", "setting": "UO-31 renal", "value": 16.6, "unit": "µM"}, {"measurement": "TGI", "setting": "UO-31 renal", "value": 59.6, "unit": "µM"}]}
